Measured values as given in PMC4912613, “A broad analysis of resistance development in the malaria parasite” (Nature Communications, 2016).
Marks after values point to notes of the source that are not given here.

Key:
[1] = tested on: ATQ-R5 (cytb F267V, parent 3D7); experiment: Cross-resistance EC50 assay, ATQ-R5; assay type: cell-based, Plasmodium falciparum; settings: Plasmodium falciparum, 3D7; SYBR green 72 hour assay; asynchronized parasites; 96-well or 1536-well format; ATQ-R5
Excerpt: (§1) To evaluate potential overlapping activity against known antimalarial drug targets, we performed dose-response studies with each compound against our assembled set of drug-resistant lines and their corresponding parents, in an asexual blood stage proliferation assay (Table 1). Comparisons were made to the drug-sensitive strain 3D7 when a parent was unavailable (TM90C2A, W2 and Dd2). As laboratories conducted EC50 assays with different strains and protocols, all comparisons were made between assays from the same laboratory and under the same assay conditions. Compounds displaying >5-fold EC50 shifts relative to the parent or sensitive strain were flagged as having potentially non-novel targets. Average fold shifts per strain ranged from 0.82 to 2.34, with a median of 1.23 indicating there was not common resistance to any one resistant clone. No resistance patterns were observed when classifying the compounds based on chemical structure, but this was not surprising given the diversity of compounds chosen. On the other hand, given that these confirmed compounds were derived from larger unconfirmed hit lists to which some filtration criteria may have been applied (for example, elimination of obvious dihydrofolate reductase inhibitors[32]), some[10][11][12][13] pre-existing bias may exist in the set. […]
(§2) Alternatively, a SYBR Green-based proliferation approach was used for the 72-h assay, as previously described. Briefly, a culture of either synchronized or asynchronous parasitized RBCs (0.3% parasitemia and 4% haematocrit) in screening medium (identical to supplemented medium above except no serum was added) was exposed to serial drug dilutions. Plates were incubated at 37 °C and gassed with 93% N2, 4% CO2 and 3% O2 for 72 h. Following incubation, 10 × SYBR Green I (Invitrogen; supplied in 10,000 × concentration) in lysis buffer ([…], 5 mM EDTA, 0.16% Saponin wt per vol and 1.6% Triton X vol per vol) was added to the wells and the plates were incubated overnight at room temperature before plate reading. EC50 assays were repeated three times, taking the average EC50 value from each assay set, and removing any outliers using a single iteration of Grubbs' test, eliminating values with z-scores above the critical z-value (α=0.05). The raw EC50 values for synchronized parasites assayed in a 384-well format are listed in Supplementary Data 4. The raw EC50 values for asynchronous parasites assayed in a 96 or 1536-well format are listed in Supplementary Data 5.
(§3) EC50 values for each strain were compared with those of the corresponding parent strain to determine fold-shift changes and identify resistance. To minimize the cause variance between assays, all comparisons were conducted between strains assayed under identical conditions. A one-way ANOVA followed by a Dunnet's post-test was conducted in GraphPad Prism to identify significant changes between the parent and resistant strain.

[2] = tested on: CYTb-G131S (cytb G131S, parent Dd2); experiment: Cross-resistance EC50 assay, CYTb-G131S; assay type: cell-based, Plasmodium falciparum; settings: Plasmodium falciparum, SYBR green 72 hour assay, synchronized parasites, 384-well format
Excerpt: as §1, §2, §3

HepG2 = experiment: Hepatocyte toxicity; assay type: cell-based, human; settings: for Hepatocyte Toxicity: HepG2; for EC50 fold shift compared to asexual stage: Hepatocyte Toxicity: hepatocyte toxicity / 3D7 EC50; for Liver Stage / Hepatocyte Toxicity: toxicity fold shift for the liver stage (hepatocyte toxicity vs liver stage EC50)
Procedure, shortened: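 Duplicate 12-point dose curves, starting at 5 μM or 50 μM, gave EC50s for both parasite and host toxicity. Compound was added to human HepG2 hepatocytes 2 h before infection with freshly dissected P. berghei sporozoites. Surviving liver-stage forms were quantified by luminescence after 48 h.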

[3] = tested on: P. falciparum 3D7, Dd2, Dd2Δexo; experiment: In vitro evolution of compound-resistant lines (selection); assay type: cell-based, Plasmodium falciparum; settings: for Time Length to Obtain Mutants: in vitro selection; for # of Resistant Strains Generated: resistant cultures out of three independent cultures; for EC50 fold shifts observed: selected parasites vs selection parent
Excerpt: While we found an overall lack of pre-existing resistance, analysing the onset of resistance was critical, as compounds resulting in rapid resistance are not ideal for clinical development. We therefore sought to create drug-resistant parasites using a variety of different selection methods. We implemented either a high-dose method or a ramp-up/pulse method for our in vitro selections. Two of the 50 compounds—MMV028895 and MMV665824—were removed from the selection study during experimentation. […] Out of the remaining 48 compounds, resistant parasites were obtained for 23 (Supplementary Data 1). As each selection was performed in triplicate with three independent cultures, we succeeded in generating a total of 66 resistant cultures. Parasites resistant to MMV026596 were not obtained despite 100 days of selection, but the cultures acquired hypersensitivity to mefloquine with a 10-fold reduction in EC50 compared with its parental line, 3D7. For the remaining 24 compounds, acquisition of resistant parasites was unsuccessful despite numerous attempts over an extensive period of time.
Based on the compound speed of action and lab specialty, selections were conducted using a high-pressure intermittent selection method, a step-wise selection method, or a constant selection method. For high-pressure selections, ∼1–2 × 10^9 parasites were treated at a concentration of 3–10 × EC50 until parasites could not be seen by microscopy (4–10 days). Following treatment, compound pressure was removed and cultures were allowed to recover. Once healthy parasites were seen and parasitemia reached ∼2%, compound pressure was reinstated. For step-wise selections, ∼1 × 10^8 parasites were treated at a starting concentration resulting in a reduced growth rate of 50%. Cultures were examined daily by microscopy, increasing compound concentration in increments of 5–10% as needed to maintain a 50% reduced growth rate. Selections were carried out until cultures achieved a reproducible EC50 fold shift of >3 × . Finally, constant selections were conducted in a similar manner to the high-pressure intermittent method with the exception that compound pressure was never removed. Following successful selection, cultures were cloned out using a limiting dilution method as previously described. Selections were terminated after 200 days if resistance could not be obtained.

[4] = tested on: GNF449-R2 (PfATP4 I203L and P990R, parent Dd2); experiment: Cross-resistance EC50 assay, GNF449-R2; assay type: cell-based; settings: Plasmodium falciparum, SYBR green 72 hour assay, asynchronized parasites, 96-well or 1536-well format
Excerpt: as §1, §2, §3

| SMILES | EC50 [1] [µM] | EC50 ([2]; strain CYTb:G131S (Dd2 parent)) [µM] | Hepatocyte Toxicity (HepG2) [µM] | EC50 fold shift compared to asexual stage: Hepatocyte Toxicity (HepG2) | Liver Stage / Hepatocyte Toxicity (HepG2) | Time Length to Obtain Mutants [3] | # of Resistant Strains Generated [3] | EC50 fold shifts observed [3] | EC50 [4] [µM] | EC50 ([2]; DD2, CYTb:G131S strain) [µM] |
| --- | --- | --- | --- | --- | --- | --- | --- | --- | --- | --- |
| O=C(Nc1ccccc1O)c1ccc(Oc2cccc(C(=O)Nc3ccccc3O)c2)cc1 [MMV665888] | 0.989 | 1.01 | 4.362 | 3.60 | 6.73 | LONG (> 125 days) | 0/3 | no shift | 0.972 |  |
| CCCOCc1cc(CN2CCN(c3cccc(Cl)c3)CC2)c(O)c2ncccc12 [MMV000787] | 1.43 | 0.632 | 2.43 |  | 4.05 | LONG (> 125 days) | 0/3 | no shift | 1.7 |  |
| Cc1nc2ccc3ccc(CNc4ccc(C(=O)CC(CCC(=O)O)C(=O)O)cc4)cc3c2c(=O)[nH]1.Cl (centres unmarked) [MMV027634] | 0.13 | 0.052 | 11.61 | 504.78 |  | SHORT (0-50 days) | 3/3 | >15x | 0.204 |  |
| c1cncc(-c2cc(N3CCC(CN4CCOCC4)CC3)nc(-c3ccncc3)n2)c1 [MMV668399] | 0.339 | 0.137 | > 50 |  | > 7 | LONG (> 125 days) | 3/3 | 2-4x | 0.938 |  |
| COc1cc2cc(C(=O)Nc3ccccc3)c(N)nc2cc1OC [MMV006767] | 2.87 | 1.8 | > 50 |  |  | MODERATE (50-125 days) | 2/3* | 2-4x | 0.329 |  |
| Cl.c1ccc2c(NCCCCCCNc3c4c(nc5ccccc35)CCCC4)c3c(nc2c1)CCCC3 [MMV019555] | 0.086 | 0.237 | 4.811 |  | 15.06 | LONG (> 125 days) | 0/3 | no shift | 0.262 |  |
| OC(CNC1CCCCC1)Cn1c2ccccc2c2ccccc21 (centres unmarked) [MMV009063] | 0.652 | 0.412 | > 5 | > 6.3 |  | LONG (> 125 days) | 3/3 | 1.9-3.4x | 0.457 |  |
| CN(C)CCCNCc1ccc(-c2ccc(Cl)c(Cl)c2)o1 [MMV673964] | 0.108 |  | 19.83 | 32.67 | 2.21 | LONG (> 125 days) | 0/3 | no shift | 1.05 | 0.363 |
| CCCN(CCC)CC(O)COc1ccccc1C(=O)Nc1ccccc1 (centres unmarked) [MMV006455] | 0.548 | 0.319 | > 5 | > 9.4 |  | LONG (> 125 days) | 0/3 | no shift | 0.309 |  |
| Brc1ccc(Nc2nc3ccccc3nc2Nc2ccc(Br)cc2)cc1 [MMV007224] | 0.719 | 0.285 | 1.868 | 8.41 | 3.63 | LONG (> 125 days) | 3/3 | 1.7x | 0.717 |  |
| CCOc1cc2c(cc1OCC)C(c1cc(Cl)ccc1O)NCC2 (centres unmarked) [MMV000478] | 0.733 | 1.37 | > 5 | > 5 |  | LONG (> 125 days) | 0/3 | no shift | 0.648 |  |
| O=C(NCC(CCCN1CCC(c2c[nH]c3ccccc23)CC1)c1ccccc1)Nc1ccc(Cl)c(Cl)c1 (centres unmarked) [MMV029272] | 4.49 | 0.92 | 5.366 | 39.46 | 2.98 | LONG (> 125 days) | 3/3 | 6-9x | 0.373 |  |
| Nc1ncc(-c2cn[nH]c2)cc1-c1nc2ccc(F)cc2[nH]1 [MMV023367] | 1.53 | 0.71 | 4.228 | 14.00 | 6.92 | LONG (> 125 days) | 3/3 | 3x | 2.66 |  |
| CC(C)c1cccc(C(NC(=O)C2Cc3ccccc3CN2C(=O)c2cccc(N3CCOCC3)c2)C2CCCC2)c1 (centres unmarked) [MMV028038] | 0.839 | 0.461 | 19.24 | 35.63 | 3.59 | MODERATE (50-125 days) | 3/3 | 5-30x | 0.555 |  |
| CN1CCN(c2ccc(Nc3c4ccccc4nc4ccccc34)cc2)CC1 [MMV006172] | 0.181 | 0.171 | 4.554 |  | 2.21 | LONG (> 125 days) | 0/3 | no shift | 0.31 |  |
| CCCCCCCN(Cc1ccc(OC(C)(C)C(=O)OCC)cc1)C(=O)Nc1ccc(Cl)cc1OCC [MMV021735] | 0.062 | 0.498 | > 50 | > 130 | > 18 | LONG (> 125 days) | 0/3 | no shift | 1.78 |  |
